In the supplement of paper PMC10307832:

Columns and labels:
Test in all cases: relative viability (nuclei count vs DMSO), 5 days (fraction); higher = more cells survive
Ibrutinib + Navitoclax = compound: C=CC(=O)N1CCC[C@@H](n2nc(-c3ccc(Oc4ccccc4)cc3)c3c(N)ncnc32)C1 [Ibrutinib] + CC1(C)CCC(c2ccc(Cl)cc2)=C(CN2CCN(c3ccc(C(=O)NS(=O)(=O)c4ccc(N[C@H](CCN5CCOCC5)CSc5ccccc5)c(S(=O)(=O)C(F)(F)F)c4)cc3)CC2)C1 [Navitoclax] (partner 0.5 µM)
Method in brief: (§1)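 Lung cancer cell lines were seeded in 1536-well plates and dosed by pin tool the next day, with either a single drug or a fixed anchor-drug dose combined with five library-drug doses (not always all listed) spaced in √10 steps. Five days later, one step fixed the cells and stained their nuclei (final 0.05% Triton X-100, 1% formaldehyde, 1 ug/ml Hoechst), and nuclei were counted on 4× images. Relative viability is the nuclei count in treated wells divided by the count in vehicle wells, and each value is the median of duplicate plates.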

BMX-IN-1 + Palbociclib = compound: C=CC(=O)Nc1cc(-n2c(=O)ccc3cnc4ccc(-c5ccc(NS(C)(=O)=O)cc5)cc4c32)ccc1C [BMX-IN-1] + CC(=O)c1c(C)c2cnc(Nc3ccc(N4CCNCC4)cn3)nc2n(C2CCCC2)c1=O [Palbociclib] (partner 0.5 µM)
Method in brief: as §1

PAC-1 + Pemetrexed = compound: C=CCc1cccc(/C=N/NC(=O)CN2CCN(Cc3ccccc3)CC2)c1O [PAC-1] + Nc1nc2[nH]cc(CCc3ccc(C(=O)N[C@@H](CCC(=O)O)C(=O)O)cc3)c2c(=O)[nH]1 [Pemetrexed] (partner 0.2 µM)
Method in brief: as §1

Ibrutinib + OSI-027 = compound: C=CC(=O)N1CCC[C@@H](n2nc(-c3ccc(Oc4ccccc4)cc3)c3c(N)ncnc32)C1 [Ibrutinib] + COc1cccc2cc(-c3nc([C@H]4CC[C@H](C(=O)O)CC4)n4ncnc(N)c34)[nH]c12 [OSI-027] (partner 0.5 µM)
Method in brief: as §1

Cell Line | relative viability (Ibrutinib + Navitoclax; first compound 0.005 µM) | relative viability (Ibrutinib + Navitoclax; first compound 0.01581 µM) | relative viability (Ibrutinib + Navitoclax; first compound 0.05 µM) | relative viability (Ibrutinib + Navitoclax; first compound 0.1581 µM) | relative viability (Ibrutinib + Navitoclax; first compound 0.5 µM) | relative viability (BMX-IN-1 + Palbociclib; first compound 0.02 µM) | relative viability (BMX-IN-1 + Palbociclib; first compound 0.2 µM) | relative viability (BMX-IN-1 + Palbociclib; first compound 0.6325 µM) | relative viability (BMX-IN-1 + Palbociclib; first compound 2 µM) | relative viability (PAC-1 + Pemetrexed; first compound 0.02 µM) | relative viability (PAC-1 + Pemetrexed; first compound 0.06325 µM) | relative viability (PAC-1 + Pemetrexed; first compound 0.2 µM) | relative viability (PAC-1 + Pemetrexed; first compound 2 µM) | relative viability (Ibrutinib + OSI-027; first compound 0.005 µM) | relative viability (Ibrutinib + OSI-027; first compound 0.01581 µM) | relative viability (Ibrutinib + OSI-027; first compound 0.05 µM) | relative viability (Ibrutinib + OSI-027; first compound 0.1581 µM) | relative viability (Ibrutinib + OSI-027; first compound 0.5 µM)
201T | 1.22 | 1.17 | 1.17 | 1.22 | 1.17 | 0.392 | 0.391 | 0.42 | 0.348 | 0.316 | 0.303 | 0.314 | 0.334 | 0.758 | 0.665 | 0.882 | 0.608 | 0.762
A549 | 1.26 | 1.2 | 1.23 | 1.3 | 1.19 |  |  |  |  |  |  |  |  |  |  |  |  | 
A-427 | 0.861 | 0.923 | 0.985 | 0.98 | 0.92 | 0.488 | 0.573 | 0.571 | 0.504 | 0.992 | 1.01 | 1.09 | 0.977 | 0.36 | 0.431 | 0.512 | 0.369 | 0.499
ABC-1 |  |  |  |  |  | 0.76 | 0.503 | 0.537 | 0.589 |  |  |  |  | 0.331 | 0.457 | 0.479 | 0.441 | 0.547
BEN | 0.0796 | 0.0705 | 0.0699 | 0.0622 | 0.0639 | 0.489 | 0.479 | 0.479 | 0.518 | 0.719 | 0.74 | 0.718 | 0.655 |  | 0.3 | 0.288 |  | 0.298
CAL-12T |  | 1.16 | 1.33 | 1.37 | 0.951 | 0.466 | 0.415 | 0.523 | 0.503 | 1.22 | 1.23 | 1.15 | 1.16 | 0.369 | 0.579 | 0.601 | 0.569 | 0.562
COR-L23 | 1.14 | 1 | 1.04 | 1.16 | 1.11 | 0.306 | 0.293 | 0.384 | 0.311 | 0.206 | 0.192 |  | 0.206 | 0.644 | 0.731 | 0.762 | 0.875 | 0.882
COR-L 105 | 0.548 | 0.74 | 0.625 | 0.681 | 0.385 | 0.449 | 0.442 | 0.447 | 0.39 | 0.983 | 1.1 | 1.04 | 1.05 | 0.393 | 0.467 | 0.389 | 0.609 | 0.31
Calu-6 | 0.954 | 0.746 | 0.771 | 0.955 | 0.756 |  |  |  |  |  |  |  |  |  |  |  |  | 
ChaGo-K-1 | 0.506 | 1.12 | 0.933 |  | 1.19 | 0.996 | 1.13 | 0.905 | 0.987 | 0.256 | 0.252 | 0.258 | 0.265 | 0.582 | 0.521 | 0.482 | 0.414 | 0.63
EBC-1 | 0.441 | 0.433 | 0.516 | 0.349 | 0.388 |  |  |  |  |  |  |  |  |  |  |  |  | 
EKVX | 0.868 | 0.96 | 0.915 | 0.806 | 0.485 | 0.424 | 0.37 | 0.773 | 0.416 | 0.356 | 0.407 | 0.355 | 0.395 | 0.644 | 0.663 | 0.763 | 0.737 | 0.511
EMC-BAC-2 | 1.16 | 1.06 | 1.01 | 1.16 | 1.02 | 0.543 | 0.537 | 0.528 | 0.516 | 0.49 | 0.479 | 0.46 | 0.464 | 0.33 | 0.352 | 0.403 | 0.426 | 0.405
EPLC-272H |  | 0.982 | 1.07 | 1.28 | 0.694 | 0.323 | 0.324 | 0.323 | 0.317 | 0.355 | 0.32 | 0.341 | 0.348 | 0.246 | 0.255 | 0.219 | 0.242 | 0.208
H3255 | 0.539 | 0.511 | 0.226 | 0.425 | 0.157 | 0.311 | 0.318 | 0.349 | 0.299 | 0.601 | 0.521 | 0.495 | 0.596 | 0.459 | 0.547 | 0.623 | 0.654 | 0.406
HARA | 1.17 | 1.1 | 1.12 | 1.15 | 0.791 | 0.304 | 0.299 | 0.258 | 0.247 | 0.23 | 0.234 | 0.264 | 0.239 | 0.303 | 0.437 | 0.297 | 0.38 | 0.247
HCC-15 | 0.741 | 0.62 | 0.701 | 0.727 | 0.673 | 0.844 | 0.762 | 0.84 | 0.802 | 0.216 | 0.234 | 0.247 | 0.22 | 0.654 | 0.595 | 0.689 | 0.403 | 0.757
HCC-44 | 0.977 | 0.913 | 0.935 | 0.995 | 0.919 | 1.02 | 0.96 | 0.996 | 0.979 | 0.649 | 0.615 | 0.588 | 0.684 | 0.44 | 0.517 | 0.585 |  | 0.669
HCC-78 | 0.785 | 0.746 | 0.722 | 0.696 | 0.566 | 0.447 | 0.464 | 0.492 | 0.549 | 0.915 | 0.904 | 0.85 | 0.928 | 0.309 | 0.362 | 0.36 | 0.355 | 0.308
HCC-366 | 0.986 | 0.977 | 1.06 |  |  | 0.535 | 0.385 | 0.454 | 0.485 | 0.176 | 0.162 | 0.159 | 0.164 | 0.803 | 0.84 | 0.934 | 0.802 | 0.96
